Where two headings read alike, the source gives them in different places.
How the values were obtained:
[1] = system: Hep G2 transplanted tumor (human hepatoma carcinoma cell); experiment: Example 6: TTD and Acla A combined on Hep G2 transplanted tumor in nude mice; assay type: in vivo, BALB/c-nu nude mice; conditions: Hep G2, Jef 50 mg/kg/time intragastric, 3 times a day, 10 days, Day 29
Method: (§1) Under sterile conditions, the above tumor cells were collected in the logarithmic growth phase. A549 was injected by subcutaneous injection in an amount of 1×10 7/0.2 mL/nude mice (cell viability>90%) into the right subaxillary of the nude mice, whereas HepG2 was injected by subcutaneous injection in an amount of 1×10 7/0 2 mL/nude mice (cell viability>90%) into the left subaxillary of the nude mice, thus establishing transplated tumor models of lung cancer and liver cancer respectively in nude mice. The mice were administered from the second day after the inoculation. […] Each mouse was intragastrically administered in 0.4 ml each time and 3 times a day, at 8:00, 14:00 and 20:00. The administrations were successive for 10 days. The day before administration was deemed as Day 0 and the body weight and tumor size of the mice were determined every 5 days to produce a dynamic plot on body weight and tumor growth. On Day 29, the mice were sacrificed and the tumors were taken out and weighed. The tumor inhibition rate (%) was calculated after the effect of the medicament based on a tumor inhibition rate of the control group being zero.
(§2) The values determined were presented as mean±standard error (Mean±SD). The experimental data for each group was analyzed with One-way ANOVA method in the SPSS 18.0 statistical software, and p<0.05 means that the differences are statistically significant.

[2] = system: A549 transplanted tumor (human non-small cell lung cancer cell line); experiment: Example 5: Acla A on A549 transplanted tumor in nude mice; assay type: in vivo, BALB/c-nu nude mice; conditions: A549, Jef 50 mg/kg/time intragastric, 2 times a day, 14 days, Day 20
Method: Under sterile conditions, the above tumor cells were collected in the logarithmic growth phase. A549 was injected by subcutaneous injection in an amount of 6×10 6/0.2 mL/nude mice (cell viability>90%) into the right subaxillary of the nude mice, thus establishing transplated tumor models of lung cancer in nude mice. The mice were administered from the second day after the inoculation. The experimental group was intragastrically administered at the experimentally designed amount, the negative control group was intragastrically administered with sterile water, and the positive control group is intragastrically administered with Jef. Each mouse was intragastrically administered in 0.4 ml each time and 2 times a day, at 8:00, and 14:00. The administrations were successive for 14 days. The day before administration was deemed as Day 0 and the body weight and tumor size of the mice were determined every 5 days to produce a dynamic plot on body weight and tumor growth. On Day 20, the mice were sacrificed and the tumors were taken out and weighed. The tumor inhibition rate (%) was calculated after the effect of the medicament based on a tumor inhibition rate of the control group being zero.
as §2

[3] = system: A549 transplanted tumor (human non-small cell lung cancer cell line); experiment: Example 6: TTD and Acla A combined on A549 transplanted tumor in nude mice; assay type: in vivo, BALB/c-nu nude mice; conditions: A549, Jef 50 mg/kg/time intragastric, 3 times a day, 10 days, Day 29
Method: as §1, §2

[4] = system: peripheral blood leucocyte of a normal human being; conditions: berbamine 0.5 μg/mL to 10 μg/mL; cited from earlier work
[5] = system: human leukemia Jurkat cells; conditions: cited from earlier work

COc1cc2ncnc(Nc3ccc(F)c(Cl)c3)c2cc1OCCCN1CCOCC1 [Jef, Jefitinib]
Mass of tumor ([1]; Mean ± SD): 0.31 ± 0.10 g | tumor inhibition rate ([1]; control = 0, * P < 0.05): 54.08* % | Mass of tumor ([2]; Mean ± SD): 0.38 ± 0.37 g | tumor inhibition rate ([2]; control = 0): −14.34% | Mass of tumor ([3]; Mean ± SD): 1.52 ± 1.00 g | tumor inhibition rate ([3]; control = 0): −34.11%

COc1cc2c3cc1Oc1c(OC)c(OC)cc4c1[C@@H](Cc1ccc(O)c(c1)Oc1ccc(cc1)C[C@@H]3N(C)CC2)N(C)CC4 [berbamine, 6,6′,7-trimethoxy-2,2′-dimethylberbaman-12-ol]
cytotoxic effect (in words) [4]: no evident cytotoxic effect | cell viability ([5]; berbamine 0.5 μg/mL): 93.69% | cell viability ([5]; berbamine 10 μg/mL): 14.85%
